PubChem BioAssay AID1259411 (Chemical Carcinogenesis Research Information System (CCRIS), 2018)
Activity calls are given as the source filed them. How the calls were made is not given here.

Test system: rodent carcinogenicity bioassays, tumor incidence
Assay: CCRIS carcinogenicity studies
Conditions: Dose: 0, Dose: 0
Method in brief: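 NCI-built, expert-reviewed records of carcinogenicity and related test outcomes (mutagenicity, tumor promotion/inhibition) compiled from published and report sources, historical span 1985-2011, not updated.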

Compound | carcinogen call (Species: MOUSE, Strain/Sex: B6C3F1/FEMALE, Route: GAVAGE, 250, 500 MG/KG IN CORN OIL, 250, 500 MG/KG IN CORN OIL, Tumor Site: Type of Lesion: LIVER: HEPATOCELLULAR ADENOMA OR CARCINOMA) | carcinogen call (Species: MOUSE, Strain/Sex: B6C3F1/MALE, Route: GAVAGE, 250, 500 MG/KG IN CORN OIL, 250, 500 MG/KG IN CORN OIL, Tumor Site: Type of Lesion: LIVER: HEPATOCELLULAR ADENOMA) | carcinogen call (Species: RAT, Strain/Sex: F344/FEMALE, Route: GAVAGE, 125, 250 MG/KG IN CORN OIL 5 D/WK FOR 103 WK (STUDY DURATION: 103 WK), 125, 250 MG/KG IN CORN OIL 5 D/WK FOR 103 WK (STUDY DURATION: 103 WK)) | carcinogen call (Species: RAT, Strain/Sex: F344/MALE, Route: GAVAGE, 125, 250 MG/KG IN CORN OIL 5 D/WK FOR 103 WK (STUDY DURATION: 103 WK), 125, 250 MG/KG IN CORN OIL 5 D/WK FOR 103 WK (STUDY DURATION: 103 WK), Tumor Site: Type of Lesion: LIVER: NEOPLASTIC NODULE, HEPATOCELLULAR CARCINOMA) | carcinogen call (Species: Mouse, Strain/Sex: Crl:CD-1(ICR)BR/Female (60/Group), Route: Oral, 0.3, 1.0, 30, 300 ppm of 94.9% of isazophos in diet for 18 mo, study duration 18 mo, 0.3, 1.0, 30, 300 ppm of 94.9% of isazophos in diet for 18 mo, study duration 18 mo) | carcinogen call (Species: Mouse, Strain/Sex: Crl:CD-1(ICR)BR/Male (60/Group), Route: Oral, 0.3, 1.0, 30, 300 ppm (reduced to 250 at wk 23) ppm of 94.9% of isazophos in diet for 18 mo, study duration 18 mo, 0.3, 1.0, 30, 300 ppm (reduced to 250 at wk 23) ppm of 94.9% of isazophos in diet for 18 mo, study duration 18 mo) | carcinogen call (Species: Rat, Strain/Sex: Crl:CD(SD)BR/Female (60/Group), Route: Oral, 0.1, 1.0, 300 reduced to 250 at wk 22 and then to 200 ppm at wk 66 of 94.9% of isazophos in diet for 24 mo, study dur, 0.1, 1.0, 300 reduced to 250 at wk 22 and then to 200 ppm at wk 66 of 94.9% of isazophos in diet for 24 mo, study dur) | carcinogen call (Species: Rat, Strain/Sex: Crl:CD(SD)BR/Male (60/Group), Route: Oral, 0.1, 1.0, 300 ppm of 94.9% of isazophos in diet for 24 mo, study duration 24 mo, 0.1, 1.0, 300 ppm of 94.9% of isazophos in diet for 24 mo, study duration 24 mo)
ClCC(Cl)(Cl)Cl | active; positive | active; positive | inactive; negative | equivocal |  |  |  | 
CCOP(=S)(OCC)Oc1nc(Cl)n(C(C)C)n1 |  |  |  |  | inactive; negative | inactive; negative | inactive; negative | inactive; negative
